Data as given in PMC12647143 (Nature Communications, 2025).

Key:
[1] = RT-qPCR of Cystatin C, Lipocalin 2, Havcr1 mRNA in kidney; assay type: in vivo, Kunming mice; settings: AMP 1003 20 or 30 mg/kg; polymyxin B 20 mg/kg
[2] = ELISA of NGAL, Cystatin C and Kim-1 in serum and urine; settings: 20 mg/kg or 30 mg/kg; 7 days
[3] = In vivo toxicity assay, single intraperitoneal injection
[4] = Renal tubular injury score; settings: AMP 1003 20 or 30 mg/kg; polymyxin B 20 mg/kg; score 0-5
[5] = system: K. pneumoniae ATCC 700603; experiment: ROS accumulation assay; assay type: cell-based, Klebsiella pneumoniae; settings: 1 ×, 2 ×, 4 × MIC
[6] = system: K. pneumoniae ATCC 700603; experiment: Bacteria-induced pneumonia model; assay type: in vivo, Kunming mice
[7] = system: K. pneumoniae ATCC 700603; experiment: Antimicrobial-resistance test; assay type: cell-based, Klebsiella pneumoniae; settings: 1/2 × MIC
MRSA ATCC 33591 [8] = experiment: Antimicrobial-resistance test; assay type: cell-based, methicillin-resistant Staphylococcus aureus; settings: for increase in MIC after continuous 14 passages exposure: MRSA ATCC 33591, 1/2 × MIC
[9] = system: multidrug-resistant bacteria; settings: cited from earlier work
mammalian cells = settings: cited from earlier work
MRSA ATCC 33591 [10] = experiment: Bacteria-induced pneumonia model; assay type: in vivo, Kunming mice; settings: MRSA ATCC 33591 pneumonia model
MRSA ATCC 33591 [11] = experiment: ROS accumulation assay; assay type: cell-based, methicillin-resistant Staphylococcus aureus; settings: 2 × MIC and 4 × MIC

With Polymyxin B as the molecule, how does the “Cystatin C, Lipocalin 2 and Havcr1 mRNA in the kidneys” value [1] read?
Its value is “notable increase in Cystatin C and Lipocalin 2 mRNA levels”.

And the “NGAL, Cystatin C and Kim-1 levels in serum or urine” value [2]?
The value was “did not cause noticeable changes”.

What about the “organ indices (heart, liver, spleen, lung, kidney)” value ([3]; 7 days, vs control group) of the same molecule?
Its value is “higher than that in the control group”.

And the “BUN and CREA levels” value ([3]; 7 days, AMP 1003 20, 30 or 40 mg/kg, polymyxin B 20 mg/kg)?
Its value is “comparable to that of control group”.

What about the “hepatotoxicity (ALT, AST)” value ([3]; 7 days, AMP 1003 all doses, polymyxin B 20 mg/kg) of the same molecule?
The value was “no apparent hepatotoxicity”.

And the “organ histology (H&E)” value ([3]; AMP 1003: only at 40 mg/kg)?
Its value is “more severe tissue damage”.

And the “renal tubular injury scores” value [4]?
The value was “significantly higher injury scores than normal mice”.

And the ROS accumulation [5]?
The ROS accumulation was “ROS elevation was observed only at 2 × MIC and 4 × MIC”.

What about the “lung histology (H&E)” value ([6]; K. pneumoniae ATCC 700603 pneumonia model) of the same molecule?
The value was “substantially alleviated these pathological changes”.

And the “decrease of bacterial load in the lungs” value ([6]; K. pneumoniae ATCC 700603 pneumonia, 5 mg/kg i.p. at 4, 8, 12 h, 24 h, n = 6)?
The value was 1.58 log10CFU.

With `CNC(C)C1CCC(N)C(OC2C(N)CC(N)C(OC3OCC(C)(O)C(NC)C3O)C2O)O1` (centres unmarked) [Gentamicin] as the molecule, how does the “increase in MIC after continuous 14 passages exposure” value [7] read?
Its value is “up to 512 fold”.

What about the “increase in MIC after continuous 14 passages exposure” value (MRSA ATCC 33591 [8]) of the same molecule?
Its value is “up to 128 fold”.

What about the “increase in MIC (cross-resistance)” value (MRSA ATCC 33591 [8]; final generation of MRSA ATCC 33591 treated with the peptide for 14 passages) of the same molecule?
Its value is 128 fold.

Which MIC [9] does the source give for melittin here?
The MIC was 1 to 16 µM.

What about the “concentration causing cytotoxicity and hemolysis” value (mammalian cells) of the same molecule?
The value was 2000 nM.

With `C[C@@H](O)[C@H]1C(=O)N2C(C(=O)O)=C(SCCN=CN)C[C@H]12` [Imipenem] as the molecule, how does the “increase in MIC after continuous 14 passages exposure” value [7] read?
Its value is “up to 16 fold”.

What about the “increase in MIC after continuous 14 passages exposure” value (MRSA ATCC 33591 [8]) of the same molecule?
Its value is “up to 8 fold”.

With `CN(C)c1ccc(O)c2c1C[C@H]1C[C@H]3[C@H](N(C)C)C(O)=C(C(N)=O)C(=O)[C@@]3(O)C(O)=C1C2=O` [Minocycline] as the molecule, how does the “increase in MIC after continuous 14 passages exposure” value [7] read?
The value was “up to 8 fold”.

Which results are given for `CN[C@H](CC(C)C)C(=O)N[C@H]1C(=O)N[C@@H](CC(N)=O)C(=O)N[C@H]2C(=O)N[C@H]3C(=O)N[C@H](C(=O)N[C@H](C(=O)O)c4cc(O)cc(O)c4-c4cc3ccc4O)[C@H](O)c3ccc(c(Cl)c3)Oc3cc2cc(c3O[C@@H]2O[C@H](CO)[C@@H](O)[C@H](O)[C@H]2O[C@H]2C[C@](C)(N)[C@H](O)[C@H](C)O2)Oc2ccc(cc2Cl)[C@H]1O` [Vancomycin]?
lung histology (H&E) (MRSA ATCC 33591 [10]): substantially alleviated these pathological changes; ROS accumulation (MRSA ATCC 33591 [11]): no such effect
